The values that follow come from US10988482B2, “IRAK4 inhibitor and use thereof” (BEIJING HANMI PHARMACEUTICAL CO., LTD., priority 2015, dated 2021).

Chain of IRAK4 kinase (Q9NWZ3 whole entry): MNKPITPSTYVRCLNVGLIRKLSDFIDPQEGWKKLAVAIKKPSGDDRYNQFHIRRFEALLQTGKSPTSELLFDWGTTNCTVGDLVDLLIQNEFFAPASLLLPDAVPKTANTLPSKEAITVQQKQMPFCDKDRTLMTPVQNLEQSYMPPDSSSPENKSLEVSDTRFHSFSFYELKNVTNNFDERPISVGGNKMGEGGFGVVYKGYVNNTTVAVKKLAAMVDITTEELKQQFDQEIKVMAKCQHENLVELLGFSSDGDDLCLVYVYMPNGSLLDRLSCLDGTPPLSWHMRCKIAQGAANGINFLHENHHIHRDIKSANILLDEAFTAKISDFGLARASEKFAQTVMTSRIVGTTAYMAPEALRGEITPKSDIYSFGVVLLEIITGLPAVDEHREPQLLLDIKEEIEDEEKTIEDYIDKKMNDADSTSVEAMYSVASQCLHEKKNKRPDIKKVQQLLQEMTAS

One test has as its system TNF-α secretion in THP-1 cells. In words: LPS-induced TNF-α secretion assay in THP-1 cells (ELISA). The class given is cell-based. To be noted: Homo sapiens; LPS-induced TNF-α secretion in THP-1 cells, 2 hours pre-incubation, 24 hours LPS. Here is the method:
The compounds of Examples 9, 98 and 105 of the invention were tested in LPS-induced TNF-α secretion assay in THP-1 cells. Human THP-1 cells (purchased from ATCC, Cat. No.: TIB-202) were cultured in RPMI-1640 medium (purchased from Gibco, Cat. No.: 22440) containing 10% fetal bovine serum (purchased from Gibco, Cat. No.: 10099-141) and 0.05 mM of 2-mercaptoethanol (purchased from Gibco, Cat. No.: 21985). The THP-1 cells in logarithmic growth phase were seeded in a 96-well plate at 2×10^5 cells/well/100 μL. The test samples were diluted with RMPI-1640 medium to 4 folds of the final concentration (5-fold dilutions starting from 10 μM, setting 6 drug concentrations, and testing in replicate wells at each concentration). The diluted test samples were added to the test wells seeded with cells at 50 μL/well, and RMPI-1640 medium (50 μL) was separately added to positive control and negative control wells. The 96-well plate was placed in the incubator at 37° C., 5% CO2 and pre-incubated for 2 hours. The 96-well plate was taken out, and 400 ng/mL of LPS (50 μL) (purchased from Sigma, Cat. No.: L6529-1MG) was added to each well of the test wells and the positive control wells, and RMPI-1640 medium (50 μL) was added to the negative control wells. After incubation in the incubator at 37° C., 5% CO2 for 24 hours, the cell culture supernatant was taken and determined for the content of TNF-α in the supernatant using a human TNF-α ELISA kit (purchased from DKW, Cat. No.: 12-1720-096).
In general, IC50 refers to the midpoint of a concentration-inhibition curve. Molecule `Cc1cc(Nc2nc(N[C@H]3CC[C@](C)(O)CC3)c3sccc3n2)sn1` [Compound 9] gave an IC50 not above 500 nM.
For `Cc1cc(Nc2nc(N[C@H]3CC[C@H](N4CCCCC4)CC3)c3sccc3n2)sn1` [Compound 98, N^4-(trans-4-(piperidin-1-yl)cyclohexyl)-N^2-(3-methylisothiazol-5-yl)thieno[3,2-d]pyrimidine-2,4-diamine], the IC50 was not above 500 nM.

A further test deals with TMD-8 cells. The test is described as follows: TMD-8 cell growth inhibition assay (CCK-8). It is filed as cell-based. To be noted: Homo sapiens, TMD8, 96 hours. Here is the method: The compounds of Examples 9, 98 and 105 of the invention were tested in TMD-8 cell growth inhibition assay. TMD-8 cells (available from Korea Hanmi Research Center) were cultured in RMPI-1640 medium (purchased from Gibco, Cat. No.: 22440) containing 10% fetal bovine serum (purchased from Gibco, Cat. No.: 10099-141). The TMD-8 cells in logarithmic growth phase were seeded in a 96-well plate at 20,000 cells/well/100 μL, and RMPI-1640 medium (100 μL) was added into blank control wells. The test samples were diluted with RMPI-1640 medium to 2 folds of the final concentration (10-fold dilutions starting from 10 μM, setting 6 drug concentrations, and testing in replicate wells at each concentration). The diluted test samples were added to test wells seeded with cells at 100 μL/well, and RMPI-1640 medium (100 μL) was separately added to the positive control wells and the blank control wells. The 96-well plate was placed in the incubator and reacted at 37° C., 5% CO2 for 96 hours. After the reaction was completed, the 96-well plate was taken from the incubator and to each well was added CCK-8 (100 μL) (purchased from DOJINDO, Cat. No.: CK04-11). Then the 96-well plate was put back to the incubator and incubated for another 2 hours. The light absorbance was measured at 450 nm, and the IC50 values were calculated therefrom.
`Cc1cc(Nc2nc(N[C@H]3CC[C@](C)(O)CC3)c3sccc3n2)sn1` [Compound 9] had a half-maximal inhibitory concentration (IC50) not above 500 nM.
Molecule `Cc1cc(Nc2nc(N[C@H]3CC[C@H](N4CCCCC4)CC3)c3sccc3n2)sn1` [Compound 98, N^4-(trans-4-(piperidin-1-yl)cyclohexyl)-N^2-(3-methylisothiazol-5-yl)thieno[3,2-d]pyrimidine-2,4-diamine] came in with an IC50 not above 500 nM.

A further test has as its target IRAK4 kinase (Homo sapiens (Human), UniProt Q9NWZ3). In words: IRAK4 kinase activity inhibition assay (ADP-Glo). The class given is biochemical. To be noted: 10 μM ATP, MBP substrate, 60 min at 25° C. Here is the method:
IRAK4 kinase (purchased from Life Technologies, Cat. No.: PR5612U) was diluted to 2 folds of the final concentration (the final concentration is 0.76 ng/μL) with reaction buffer (40 mM Tris-HCl, pH 7.5; 20 mM MgCl2; 0.1 mg/mL BSA; 1 mM DTT), and added to a 384-well plate at 5 μL/well. The test drugs were 10-fold serial diluted from 10 μM to set six concentration points and added to the test wells of the 384-well plate at 2.5 μL/well. After incubation for 10 min at 25° C., 10 μM of ATP and […] of an enzyme reaction substrate, myelin basic protein MBP (purchased from SignalChem, Cat. No.: M42-51N) were added at 2.5 µL/well, and reacted at 25° C. for 60 minutes. After the reaction was completed, the kinase activity assay was performed using the ADP-Glo™ kinase assay kit (purchased from Promega, Cat. No.: V9102) according to the manufacture's instruction, i.e., 10 μL of ADP-Glo reaction reagent was first added and reacted at 25° C. for 40 minutes, 10 μL of the solution to be tested was taken and mixed with 10 μL of ADP-Glo detection reagent, and reacted at 25° C. for 30 minutes. The kinase activity was then detected, and the IC50 values of the test drugs were calculated.
(In ADP-Glo the light output rises with the ADP produced.)
On to `Cc1cc(Nc2nc(N[C@H]3CC[C@](C)(O)CC3)c3sccc3n2)sn1` [Compound 9], for which the IC50 is not above 100 nM.
The molecule `C[C@]1(O)CC[C@H](Nc2nc(Nc3ccc(C(=O)NC4CCNCC4)cc3)nc3ccsc23)CC1` [Compound 66] had a concentration for half-maximal inhibition (IC50) of 100 to 1000 nM.
Turning to `CNC1CCN(C(=O)c2ccc(Nc3nc(N[C@H]4CC[C@H](O)CC4)c4sccc4n3)cc2)CC1` [Compound 67], the IC50 fell in the range of 100 to 1000 nM.
Take `CN(C)C1CCN(C(=O)c2ccc(Nc3nc(N[C@H]4CC[C@H](O)CC4)c4sccc4n3)cc2)CC1` [Compound 68]: the IC50 lay within 100 to 1000 nM.
The same measure, in the same setting: to `O[C@H]1CC[C@H](Nc2nc(Nc3ccc(OC4CCOC4)cc3)nc3ccsc23)CC1` (stereo partly drawn) [Compound 69, trans-4-((2-((4-((tetrahydrofuran-3-yl)oxy)phenyl)amino)thieno[3,2-d]pyrimidin-4-yl)amino)cyclohexanol] belongs 100 to 1000 nM.
For `CN1CCC(N(C)c2ccc(Nc3nc(N[C@H]4CC[C@H](O)CC4)c4sccc4n3)cc2)CC1` [Compound 70], the IC50 fell in the range of 100 to 1000 nM.
In the case of `C[C@]1(O)CC[C@H](Nc2nc(Nc3cccc(CC(N)=O)c3)nc3ccsc23)CC1` [Compound 72], the IC50 fell in the range of 1000 to 10000 nM.
On to `CN1CCN(c2cccc(Nc3nc(N[C@H]4CC[C@](C)(O)CC4)c4sccc4n3)c2)CC1` [Compound 73], for which the IC50 is 100 to 1000 nM.
Molecule `CN1CCN(c2ccc(Nc3nc(N[C@H]4CC[C@](C)(O)CC4)c4sccc4n3)cc2)CC1` [Compound 74] gave an IC50 of 1000 to 10000 nM.
Same read-out and setting: with `CN1CCN(Cc2cc(Nc3nc(N[C@H]4CC[C@](C)(O)CC4)c4sccc4n3)sn2)CC1` [Compound 75] the figure was 1000 to 10000 nM; with `Cc1cc(Nc2nc(N[C@H]3CC[C@H](O)CC3)c3occc3n2)sn1` [Compound 76, trans-4-((2-((3-methylisothiazol-5-yl)amino)furo[3,2-d]pyrimidin-4-yl)amino)cyclohexanol], 100 to 1000 nM.
Same read-out and setting: to `Cc1cc(Nc2nc(N[C@H]3C[C@H](N)C3)c3sccc3n2)sn1` [Compound 77, N^4-(trans-3-aminocyclobutyl)-N^2-(3-methylisothiazol-5-yl)thieno[3,2-d]pyrimidine-2,4-diamine] belongs not above 100 nM; to `Cc1cc(Nc2nc(N[C@H]3C[C@@H](N)C3)c3sccc3n2)sn1` [Compound 78], not above 100 nM.
Still for that read-out and setting: with `Cc1cc(Nc2nc(N[C@H]3CC[C@@H](N)CC3)c3sccc3n2)sn1` [Compound 79] the figure was not above 100 nM; with `Cc1cc(Nc2nc(N[C@H]3CC[C@H](N)CC3)c3sccc3n2)sn1` [Compound 80], 100 to 1000 nM; with `Cc1cc(Nc2nc(O[C@H]3CC[C@@H](N)C3)c3sccc3n2)sn1` [Compound 81], 100 to 1000 nM.
As to `Cc1cc(Nc2nc(O[C@H]3CC[C@@H](N)CC3)c3sccc3n2)sn1` [Compound 82], the IC50 was in the range of 100 to 1000 nM.
Same read-out and setting: to `Cc1cc(Nc2nc(O[C@H]3CC[C@H](N)CC3)c3sccc3n2)sn1` [Compound 83] belongs not above 100 nM.
On to `Cn1cc(Nc2nc(N[C@H]3CC[C@@H](N)CC3)c3sccc3n2)cn1` [Compound 84], for which the 50% inhibitory concentration (IC50) lay within 100 to 1000 nM.
The molecule `Cn1cc(Nc2nc(O[C@H]3CC[C@@H](N)C3)c3sccc3n2)cn1` [Compound 85] displayed a 50% inhibitory concentration (IC50) of 100 to 1000 nM.
`CN[C@H]1C[C@H](Nc2nc(Nc3cc(C)ns3)nc3ccsc23)C1` [Compound 86, N^4-(trans-3-(methylamino)cyclobutyl)-N^2-(3-methylisothiazol-5-yl)thieno[3,2-d]pyrimidine-2,4-diamine]: the IC50 was 100 to 1000 nM.
Consider `CN[C@H]1C[C@@H](Nc2nc(Nc3cc(C)ns3)nc3ccsc23)C1` [Compound 87], for which the IC50 lay within 100 to 1000 nM.
Turning to `CN[C@H]1CC[C@@H](Nc2nc(Nc3cc(C)ns3)nc3ccsc23)CC1` [Compound 88], the IC50 was in the range of 100 to 1000 nM.
The same measure, in the same setting: to `CN[C@H]1CC[C@H](Nc2nc(Nc3cc(C)ns3)nc3ccsc23)CC1` [Compound 89] belongs 100 to 1000 nM; to `CN[C@H]1CC[C@@H](Oc2nc(Nc3cc(C)ns3)nc3ccsc23)CC1` [Compound 90], 100 to 1000 nM.
For `Cc1cc(Nc2nc(N[C@H]3CC[C@H](N(C)C)CC3)c3sccc3n2)sn1` [Compound 91, N^4-(trans-4-(dimethylamino)cyclohexyl)-N^2-(3-methylisothiazol-5-yl)thieno[3,2-d]pyrimidine-2,4-diamine], the IC50 is not above 100 nM.
Molecule `Cc1cc(Nc2nc(N[C@H]3CC[C@@H](N(C)C)CC3)c3sccc3n2)sn1` [Compound 92] showed an IC50 of 100 to 1000 nM.
`CCN(CC)[C@H]1CC[C@@H](Nc2nc(Nc3cc(C)ns3)nc3ccsc23)CC1` [Compound 93] yielded an IC50 of 100 to 1000 nM.
The molecule `CCN(CC)[C@H]1CC[C@H](Nc2nc(Nc3cc(C)ns3)nc3ccsc23)CC1` [Compound 94] displayed an IC50 not above 100 nM.
`Cc1cc(Nc2nc(O[C@H]3CC[C@@H](N(C)C)CC3)c3sccc3n2)sn1` [Compound 95] displayed an IC50 not above 100 nM.
For `Cc1cc(Nc2nc(O[C@H]3CC[C@H](N(C)C)CC3)c3sccc3n2)sn1` [Compound 96], the concentration for half-maximal inhibition (IC50) is not above 100 nM.
`Cc1cc(Nc2nc(N[C@H]3CC[C@H](N(CCO)CCO)CC3)c3sccc3n2)sn1` [Compound 97] returned a half-inhibitory concentration (IC50) not above 100 nM.
`Cc1cc(Nc2nc(N[C@H]3CC[C@H](N4CCCCC4)CC3)c3sccc3n2)sn1` [Compound 98, N^4-(trans-4-(piperidin-1-yl)cyclohexyl)-N^2-(3-methylisothiazol-5-yl)thieno[3,2-d]pyrimidine-2,4-diamine] showed an IC50 not above 100 nM.
Still for that read-out and setting: with `Cc1cc(Nc2nc(N[C@H]3CC[C@H](N4CCCC4)CC3)c3sccc3n2)sn1` [Compound 99] the figure was not above 100 nM.
Regarding `Cc1cc(Nc2nc(N[C@H]3CC[C@H](N4CCOCC4)CC3)c3sccc3n2)sn1` [Compound 100], the IC50 was not above 100 nM.
The molecule `Cc1cc(Nc2nc(O[C@H]3CC[C@H](N4CCCC4)CC3)c3sccc3n2)sn1` [Compound 101] showed a half-inhibitory concentration (IC50) not above 100 nM.
Take `Cc1cc(Nc2nc(O[C@H]3CC[C@H](N4CCCCC4)CC3)c3sccc3n2)sn1` [Compound 102]: the IC50 is not above 100 nM.
For the molecule `Cc1cc(Nc2nc(O[C@H]3CC[C@H](N4CCOCC4)CC3)c3sccc3n2)sn1` [Compound 103], the half-inhibitory concentration (IC50) lay within 100 to 1000 nM.
Molecule `Cc1cc(Nc2nc(N[C@H]3CC[C@H](O)CC3)c3c(ccn3C)n2)sn1` [Compound 104, trans-4-((5-methyl-2-((3-methylisothiazol-5-yl)amino)-5H-pyrrolo[3,2-d]pyrimidin-4-yl)amino)cyclohexanol] had a 50% inhibitory concentration (IC50) not above 100 nM.
`Cc1cc(Nc2nc(N[C@H]3CC[C@](C)(O)CC3)c3c(ccn3Cc3cccnc3)n2)sn1` [Compound 106]: the IC50 lay in the range of 100 to 1000 nM.
Molecule `Cc1cc(Nc2nc(N[C@H]3CC[C@H](N4CCCCC4)CC3)c3c(ccn3CCCC#N)n2)sn1` [Compound 107] showed an IC50 not above 100 nM.
Still for that read-out and setting: with `Cc1cc(Nc2nc(N[C@H]3CC[C@H](N4CCCCC4)CC3)c3c(ccn3CCC(N)=O)n2)sn1` [Compound 108] the figure was not above 100 nM.
